Results on 8 compounds are retold here after patent US20110275643A1, “AROYLQUINOLINE COMPOUNDS” (NATIONAL HEALTH RESEARCH INSTITUTES, priority 2010, published 2011).

Read-outs that look alike come from different tables or passages of the source. Where only a bound is given, the exact number is not on record here.

The test system of data set [1] is oral epidermoid carcinoma KB cells. Briefly: In vitro cell growth inhibition, methylene blue dye assay, KB cells. The class given is cell-based, Human. As for the experimental part: (§1) Human oral epidermoid carcinoma KB cells, non-small-cell lung carcinoma H460 cells, colorectal carcinoma HT29 cells and stomach carcinoma MKN45 cells were maintained in RMPI-1640 medium supplied with 5% fetal bovine serum (FBS). […] Cells in logarithmic phase were cultured at a density of 5000 cells/mL/well in a 24-well plate. KB-VIN10 cells were cultured in drug-free medium for 3 days prior to use. The cells were exposed to various concentrations of the test drugs for 72 hours. The methylene blue dye assay was used to evaluate the effect of the test compounds on cell growth (Finlay et al., 1984).

For data set [2], the system named is non-small-cell lung carcinoma H460 cells. Briefly: In vitro cell growth inhibition, methylene blue dye assay, H460 cells. The settings on record: read-out: IC50 on the proliferation of cells, H460. The class given is cell-based, Human. As for the experimental part: as §1
Data set [3] relates to colorectal carcinoma HT29 cells. Description: In vitro cell growth inhibition, methylene blue dye assay, HT29 cells. The class given is cell-based, Human. The settings on record: read-out: IC50 on the proliferation of cells, HT29. As for the experimental part:
as §1

Data set [4] has as its system stomach carcinoma MKN45 cells. Briefly: In vitro cell growth inhibition, methylene blue dye assay, MKN45 cells. The class given is cell-based, Human. Particulars: read-out: IC50 on the proliferation of cells, MKN45. The method, then:
as §1

The subject of data set [5] is KB-VIN10 cells (overexpression of P-gp170/MDR). Briefly: In vitro cell growth inhibition, methylene blue dye assay, MDR-positive KB-VIN10 cells. The class given is cell-based, Human. Particulars: read-out: IC50 on the proliferation of cells, KB-VIN10. As for the experimental part:
as §1

For a further data set, the system named is MAP-rich tubulin. Briefly: Tubulin polymerization in vitro assay (turbidimetric). The class given is biochemical, bovine. The settings on record: 37° C., 30 minutes, read-out: Inhibition of tubulin polymerization IC50 ± SD. The method, then:
Turbidimetric assays (Liou et al., 2004; Kuo et al., 2004) of microtubules were performed as described by Bollag et al. 1995. In brief, microtubule-associated protein (MAP)-rich tubulin (from bovine brain, Cytoskeleton, Denver, Col.) has been dissolved in reaction buffer (100 mM PIPES (1,4-piperazinediethanesulfulfonic acid, pH 6.9), 2 mM magnesium chloride (MgCl2), 1 mM GTP (guanosine triphosphate)) in preparing of 4 mg/mL tubulin solution. Tubulin solution (240 μg MAP-rich tubulin per well) was placed in 96-well microtiter plate in the presence of test compounds or 2% (v/v) DMSO (dimethyl sulfoxide) as vehicle control. The increase in absorbance was measured at 350 nm in a PowerWave X Microplate Reader (Bio-Tek Instruments, Winooski, Vt.) at 37° C. and recorded every 30 seconds for 30 minutes.

For data set [6], the system named is colchicine-binding site of tubulin. Briefly: Tubulin competition-binding scintillation proximity assay ([3H]colchicine). The settings on record: for Inhibition of [3H]colchicine binding (% ± SD), 1 μM inhibitor / Inhibition of [3H]colchicine binding (% ± SD), 5 μM inhibitor: Tubulin at 1 μM, [3H]colchicine at 5 μM. As for the experimental part: This assay was performed as described by Tahir et al., 2003. […] Then 80 μg of Streptavidin-labeled SPA (scintillation proximity assay) beads were added to each reaction mixture. Then the radioactive counts were directly measured by a scintillation counter.
(In a scintillation proximity assay essentially only radioactivity close to the scintillant gives light.)

Data set [7] concerns five cancer cell lines (KB, H460, HT29, MKN45, KB-VIN10). Briefly: Antiproliferative activity, mean over five cancer cell lines. The class given is cell-based, Human. Particulars: for IC50: Homo sapiens, read-out: mean IC50 value against five cancer cell lines. The method, then: The synthesized compounds 5 to 17 were evaluated for antiproliferative activities against four carcinoma cells, oral epidermoid carcinoma KB cells, non-small-cell lung carcinoma H460 cells, colorectal carcinoma HT29 cells and stomach carcinoma MKN45 cells, as well as the MDR-positive cell lines KB-VIN10, that overexpressed P-gp 170/MDR (Table 1). The controls were compounds 1 and 3.
as §1

The mark [8] stands for this setting: Homo sapiens, KB cells, 72 hours, mean ± SD, read-out: IC50 on the proliferation of cells, KB.
[9] abbreviates: Homo sapiens, NCI-H460, H460 cells, 72 hours, mean ± SD.
The mark [10] stands for this setting: Homo sapiens, HT-29, HT29 cells, 72 hours, mean ± SD.
Setting [11] is: Homo sapiens, MKN-45, MKN45 cells, 72 hours, mean ± SD.
The mark [12] stands for this setting: Homo sapiens, KB-VIN10 cells, 72 hours, mean ± SD.
[13] abbreviates: mean of KB, H460, HT29, MKN45, KB-VIN10.
The mark [14] stands for this setting: Homo sapiens, KB, 72 h, read-out: IC50 on the proliferation of cells, KB.

Regarding `COc1ccc(/C=C\c2cc(OC)c(OC)c(OC)c2)cc1O` [Compound 1, combretastatin A-4, reference compound], the IC50 in [1] (KB cells, 72 hours, mean ± SD, read-out: IC50 on the proliferation of cells, KB) was 2.4 ± 0.2 nM; in [2] (H460 cells, 72 hours, mean ± SD), 2.6 ± 0.3 nM; in [3] (HT29 cells, 72 hours, mean ± SD), 835 ± 54 nM; in data set [4] (MKN45 cells, 72 hours, mean ± SD), 4.9 ± 0.2 nM; in [5] (KB-VIN10 cells, 72 hours, mean ± SD), 1.9 ± 0.4 nM; in the data set with MAP-rich tubulin, […]. For the same compound, the “Inhibition of [3H]colchicine binding (% ± SD), 1 μM inhibitor” value (“Inhibition … (% ± SD), 1 μM inhibitor” below) in [6] was 87 ± 1%. Moreover, the “Inhibition of [3H]colchicine binding (% ± SD), 5 μM inhibitor” value (“Inhibition … (% ± SD), 5 μM inhibitor” below) in data set [6] is on record as 95 ± 2%.

By melting point is commonly meant the temperature, or range, at which the solid turns liquid. With `COc1cc(C(=O)c2ccc3ccccc3n2)cc(OC)c1OC` [Compound 5, 2-(3′,4′,5′-trimethoxybenzoyl)quinoline], the melting point fell in the range of 158 to 159 °C. Further, the IC50 in data set [1] (setting [8]) turned out to be 174 ± 33.1 nM. Besides, the IC50 in data set [2] (setting [9]) came out at 180 ± 25.5 nM. The IC50 in data set [3] (setting [10]) worked out at 148 ± 17 nM. Further, in data set [4] (setting [11]), the IC50 stood at 246 ± 32.7 nM. In data set [5] (setting [12]), the IC50 amounted to 117 ± 23.7 nM. For the same compound, the IC50 in the data set with MAP-rich tubulin was above 10000 nM. In addition, the IC50 in data set [7] (setting [13]) stood at 173 nM.

For the compound `COc1ccc2nc(C(=O)c3cc(OC)c(OC)c(OC)c3)ccc2c1` [Compound 12, 6-methoxy-2-(3′,4′,5′-trimethoxybenzoyl)quinoline], the melting point was 143 to 145 °C. Besides, the IC50 in data set [1] (setting [14]) was determined as 27.2 ± 9.8 nM. In [2] (Homo sapiens, NCI-H460, 72 h), the IC50 turned out to be 61.5 ± 20.5 nM. Also, the IC50 in [3] (Homo sapiens, HT-29, 72 h) stood at 77 ± 5.7 nM. Also, in [4] (Homo sapiens, MKN-45, 72 h), the IC50 came to 150 ± 31.2 nM. The IC50 in data set [5] (Homo sapiens, KB-VIN10, 72 h) is 21.5 ± 0.6 nM. Further, the IC50 with MAP-rich tubulin came out at 3500 nM. In addition, in data set [6], the “Inhibition … (% ± SD), 1 μM inhibitor” value amounted to 40 ± 3% and the “Inhibition … (% ± SD), 5 μM inhibitor” value stood at 68 ± 2%. In addition, the IC50 in data set [7] is 67 nM.

As for `COc1ccc2cc(C(=O)c3cc(OC)c(OC)c(OC)c3)ccc2n1` [Compound 14, 2-methoxy-6-(3′,4′,5′-trimethoxybenzoyl)quinoline], the melting point lay in the range of 182 to 183 °C. Besides, the IC50 in [1] (setting [8]) came out at 301 ± 64.4 nM. In addition, the IC50 in data set [2] (setting [9]) was 256 ± 34.6 nM. Moreover, the IC50 in [3] (setting [10]) came to 206 ± 4.9 nM. Further, the IC50 in data set [4] (setting [11]) amounted to 138 ± 54.4 nM. In addition, the IC50 in data set [5] (setting [12]) was determined as 202 ± 26.2 nM. The IC50 in the data set on MAP-rich tubulin was above 10000 nM. Besides, the IC50 in data set [7] (setting [13]) amounted to 220 nM.

The compound `COc1cc(C(=O)c2ccc3c(N)c(OC)ccc3n2)cc(OC)c1OC` [Compound 15, 5-amino-6-methoxy-2-(3′,4′,5′-trimethoxybenzoyl)quinoline] had a melting point of 184.3 to 185.2 °C. The IC50 in data set [1] (setting [14]) worked out at 0.3 ± 0.1 nM. The IC50 in [1] (Homo sapiens, KB, read-out: 50% Inhibition concentration (IC50) on the proliferation of KB cells line) is 0.31 nM. In addition, the IC50 in data set [2] (Homo sapiens, NCI-H460, 72 h) amounted to 0.4 ± 0.3 nM. Also, the IC50 in data set [3] (Homo sapiens, HT-29, 72 h) stood at 0.4 ± 0.2 nM. Further, in data set [4] (Homo sapiens, MKN-45, 72 h), the IC50 is 0.3 ± 0.2 nM. Also, the IC50 in data set [5] (Homo sapiens, KB-VIN10, 72 h) was 0.2 ± 0.1 nM. Besides, the IC50 in the data set with MAP-rich tubulin is 1600 nM. In addition, in data set [6], the “Inhibition … (% ± SD), 1 μM inhibitor” value is recorded as 90 ± 0.5% and the “Inhibition … (% ± SD), 5 μM inhibitor” value came to 97 ± 1%. In addition, in data set [6] ([3H]-colchicine binding assay), the “binding to the colchicine-binding domain in words” value is listed as “strongly bound to the colchicine-binding domain”. Also, in data set [7], the IC50 was 0.32 nM. The “fold improvement in the IC50 value over compound 12” value in data set [7] (versus compound 12) is reported as above 100 fold.

In the case of `COc1cc(C(=O)c2ccc3ncccc3c2)cc(OC)c1OC` [Compound 9, 6-(3′,4′,5′-trimethoxybenzoyl)quinoline], the melting point lay within 132 to 134 °C. The IC50 in [1] (setting [8]) was determined as 24 ± 6.1 nM. Besides, the IC50 in data set [2] (setting [9]) came out at 36 ± 5.5 nM. Besides, in data set [3] (setting [10]), the IC50 is 24.6 ± 3 nM. The IC50 in data set [4] (setting [11]) was found to be 16.3 ± 4.5 nM. Further, the IC50 in [5] (setting [12]) amounted to 21.5 ± 7.7 nM. For the same compound, the IC50 in the data set on MAP-rich tubulin stood at 2900 nM. In data set [6], the “Inhibition … (% ± SD), 1 μM inhibitor” value came out at 51 ± 3% and the “Inhibition … (% ± SD), 5 μM inhibitor” value worked out at 72 ± 3%. The IC50 in [7] (setting [13]) came out at 24.4 nM.

Turning to `COc1cc(C(=O)c2ccc3cccnc3c2)cc(OC)c1OC` [Compound 10, 7-(3′,4′,5′-trimethoxybenzoyl)quinoline], the melting point lay within 149 to 151 °C. Also, the IC50 in data set [1] (setting [8]) is above 10000 nM. Further, the IC50 in [2] (setting [9]) is above 10000 nM. Further, the IC50 in [3] (setting [10]) was above 10000 nM. Further, the IC50 in [4] (setting [11]) is above 10000 nM. The IC50 in data set [5] (setting [12]) was above 10000 nM. Moreover, in data set [7], the “cytotoxicity / antiproliferative activity in words” value is “loss of cytotoxicity”.

Take `COc1cc(C(=O)c2ccnc3c(OC)cccc23)cc(OC)c1OC` [Compound 13, 8-methoxy-4-(3′,4′,5′-trimethoxybenzoyl)quinoline]: the melting point fell in the range of 162.5 to 164.1 °C. In addition, the IC50 in data set [1] (setting [8]) is 155 ± 15.1 nM. For the same compound, the IC50 in [2] (setting [9]) turned out to be 193 ± 35.3 nM. Further, the IC50 in [3] (setting [10]) is 162 ± 28.7 nM. The IC50 in data set [4] (setting [11]) worked out at 147 ± 25.4 nM. Further, the IC50 in data set [5] (setting [12]) worked out at 165 ± 33 nM. In addition, the “cytotoxicity / antiproliferative activity in words” value in data set [7] is “over an order of magnitude increase in activity over the parental compound 7”. In [7] (setting [13]), the IC50 came out at 164 nM.
